US9809853B2, “Calcium-activated chloride channel involved in human sweat formation” (BRAIN Biotechnology Research and Information Network AG, priority 2012, dated 2017)

Target: T1, CaCC (Ca^2+-activated chloride channels) in NCL-SG3-hsYFP cells (Homo sapiens, UniProt Q5XXA6)
T1 sequence (Q5XXA6 1-986): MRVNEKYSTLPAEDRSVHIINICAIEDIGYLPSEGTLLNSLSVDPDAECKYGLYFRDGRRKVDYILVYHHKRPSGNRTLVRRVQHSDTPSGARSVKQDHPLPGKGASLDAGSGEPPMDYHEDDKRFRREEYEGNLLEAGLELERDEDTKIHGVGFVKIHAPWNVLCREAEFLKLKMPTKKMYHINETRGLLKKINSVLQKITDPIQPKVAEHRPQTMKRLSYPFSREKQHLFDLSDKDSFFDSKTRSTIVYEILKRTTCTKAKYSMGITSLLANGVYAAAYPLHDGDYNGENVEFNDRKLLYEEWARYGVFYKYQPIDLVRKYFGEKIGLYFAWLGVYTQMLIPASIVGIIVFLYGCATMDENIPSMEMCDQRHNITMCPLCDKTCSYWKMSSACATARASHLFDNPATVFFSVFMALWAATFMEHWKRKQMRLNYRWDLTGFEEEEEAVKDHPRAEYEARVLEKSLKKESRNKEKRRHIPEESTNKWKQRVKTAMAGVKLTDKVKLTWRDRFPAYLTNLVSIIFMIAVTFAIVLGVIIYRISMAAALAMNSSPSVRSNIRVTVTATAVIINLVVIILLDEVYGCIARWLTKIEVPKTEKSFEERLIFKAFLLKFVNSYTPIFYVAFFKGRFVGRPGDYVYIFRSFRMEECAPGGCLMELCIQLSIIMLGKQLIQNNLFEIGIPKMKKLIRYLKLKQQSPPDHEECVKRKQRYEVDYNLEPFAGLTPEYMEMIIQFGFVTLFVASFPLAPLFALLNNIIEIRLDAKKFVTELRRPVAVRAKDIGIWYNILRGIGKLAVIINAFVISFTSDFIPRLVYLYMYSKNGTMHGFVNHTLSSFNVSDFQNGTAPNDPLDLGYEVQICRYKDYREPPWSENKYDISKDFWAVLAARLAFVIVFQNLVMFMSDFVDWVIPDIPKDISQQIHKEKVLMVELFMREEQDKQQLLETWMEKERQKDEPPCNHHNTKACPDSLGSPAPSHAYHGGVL
Assay: hsYFP fluorescence quenching (Cl^− efflux/I^− influx) assay in NCL-SG3-hsYFP CaCC activity sensor cells
Type: cell-based
Method: The halide inside the cell functionally interacts with the halide-sensitive cytoplasmic indicator protein, which leads to a quenching of the signal provided by the halide-sensitive cytoplasmic indicator protein. The more halide (such as e.g. iodide) flows into the cell, the weaker the signal emitted by the halide-sensitive cytoplasmic indicator protein becomes. This alteration of the signal emitted by the halide-sensitive cytoplasmic indicator protein is determined in a third step of the method of the invention. Due to the fact that the influx of halide into the cell is proportional to the efflux of chloride ions, the halide influx is used as a direct measure for chloride secretion. To determine the amount of chloride secretion, the fluorescence decrease is plotted against time (Δfluorescence/Δtime) and the initial slope of the resulting graph represents the iodide influx rate (sec^−1), which in turn is directly proportional to the chloride efflux rate, representing the amount of chloride secretion per time. In a fourth step, this amount of chloride secretion determined in the presence of a test compound is compared to the amount of chloride secretion determined in the absence of a said compound.
Effect of CaCC inhibitors on sweat gland-specific Ca^2+-dependent […] and proportional I^− influx was determined using NCL-SG3-hsYFP cells. Quenching of intracellular hsYFP fluorescence was measured and plotted over time. Exemplary raw data (B) and fitted curves are shown (A). NCL-SG3-hsYFP cells were incubated with 50 μM tannic acid (TA), 25 μM niflumic acid (NFA), 25 μM 5-nitro-2-(3-phenylpropyl-amino) benzoic acid (NPPB), 100 μM epigallocatechin-3-gallate (EGCG) for 15 min and then stimulated with 330 μM ATP.
Sweat gland-specific Ca^2+-dependent Cl^− efflux and a proportional I^− influx was determined using NCL-SG3-hsYFP cells. Quenching of intracellular hsYFP fluorescence was measured and plotted over time. Exemplary fitted curves are shown. NCL-SG3-hsYFP cells were incubated with increasing concentrations of tannic acid (TA) and then stimulated with 330 μM ATP. […] NCL-SG3-hsYFP cells were incubated with increasing concentrations of CaCC inhibitors and quenching of intracellular hsYFP fluorescence was measured after stimulation with ATP. The rate of […] (sec^−1), which is proportional to Ca^2+-dependent […] was calculated from the initial slope of the measured hsYFP fluorescence (ΔYFP fluorescence/Δtime) and is a direct measure of CaCC activity. IC50 values were determined by plotting the percentage of residual CaCC activity against the individual inhibitor concentration.
NCL-SG3-hsYFP cells were routinely cultivated in Williams' Medium E supplemented with 9% Fetal Calf Serum, 3.5 mM Glutamine, 9 ng/μl Hydrocortisone, Insulin-Transferrin-Selenium-Supplement (PAA Laboratories) at 37° C. and 5% CO2. For microplate assays, 20,000 cells were seeded in 96-well black-walled, clear bottom microplates (Costar) and cultivated for 2 days until cells reached confluency. Cells were washed three times with 100 μl modified Krebs-Henseleit (KH) buffer (137 mM NaCl, 2.7 mM KCl, 1.2 mM MgSO4, 1.2 mM KH2PO4, 4.2 mM NaHCO3, 1.3 mM CaCl2, 10 mM HEPES, pH 7.4) and incubated with the test compound in 50 μl KH-buffer for 15 min at 37° C. and 5% CO2. Microplates were transferred into an automated fluorescence plate reader (FlexStation®, Molecular Devices) and cellular hsYFP fluorescence was continuously recorded every 3.5 sec until end of the experiment (excitation at 485 nm, emission at 535 nm, cutoff 515 nm).

SMILES: Nc1ncnc2c1ncn2[C@@H]1O[C@H](COP(=O)(O)OP(=O)(O)OP(=O)(O)O)[C@@H](O)[C@H]1O [ATP]
- Quenching of hsYFP fluorescence after addition of Ca^2+-elevating agent (330 μM): fast quenching of the hsYFP fluorescence without recovery
- Concentration giving maximal quenching of hsYFP (dose-dependent stimulation of Ca^2+-dependent Cl^− transport): 330 µM

SMILES: O=C(OC[C@H]1O[C@@H](OC(=O)c2cc(O)c(O)c(OC(=O)c3cc(O)c(O)c(O)c3)c2)[C@H](OC(=O)c2cc(O)c(O)c(OC(=O)c3cc(O)c(O)c(O)c3)c2)[C@@H](OC(=O)c2cc(O)c(O)c(OC(=O)c3cc(O)c(O)c(O)c3)c2)[C@@H]1OC(=O)c1cc(O)c(O)c(OC(=O)c2cc(O)c(O)c(O)c2)c1)c1cc(O)c(O)c(OC(=O)c2cc(O)c(O)c(O)c2)c1 [TA, tannic acid]
- Effect on hsYFP quenching by Cl^− efflux/I^− influx mediated by ATP (50 μM, 15 min, then 330 μM ATP): significant reduction of hsYFP quenching
- Dose dependence of inhibition of CaCC-mediated Cl^− efflux (increasing inhibitor concentrations, stimulation with 330 μM ATP): dose-dependent reduction of hsYFP quenching
- Effect of pretreatment on basal hsYFP quenching (unactivated cells (no ATP)): significant reduction of basal hsYFP quenching
